“Also recorded” adds a separate entry of the source. No end group written: not given here.
System: male C57BL mice
Assay: Screening for intestinal growth effects (small intestine and colon mass relative to body weight, small intestine-colon sensitivity index)
Type: in vivo
Conditions: for Preferential growth of small intestine versus colon (small intestine-colon sensitivity): relative to [Gly2]GLP-2; for colon mass relative to body weight, % [Gly2]GLP-2 / small intestine-colon sensitivity index, (SI/Colon)X/(SI/Colon)[Gly2]GLP-2 %: male C57BL mice, 30 nmol/kg s.c. twice daily for ten days; for small intestine-colon sensitivity index, (SI/Colon)X/(SI/Colon)[Gly2]GLP-2 %: third value column
Protocol: The ability of the present compounds to stimulate intestinal growth was determined in male C57BL mice. Individual groups (n=6) of mice were given 30 nmol/kg of each compound, s.c, twice daily for ten consecutive days. For comparison purposes other groups of animals were given either an equimolar dose of [Gly2]GLP-2 (SEQ ID NO:54) or vehicle (phosphate buffered saline, pH 7.4) in the same dosing regimen. Twenty-four hours after the last dose of compound had been given the mice were sacrificed and the small intestine (from the pylorus to the cecum) and the colon (intestine distal to cecum) was emptied and weighed. To correct for slight difference in body weight (BW), the organ mass of the small intestine (SI) and colon were expressed relative to BW. The non-selective reference compound [Gly2]GLP-2 (SEQ ID NO:54) has been reported to stimulate gastrointestinal growth in both esophagus, stomach, small intestine and colon and to evaluate differences in growth pattern induced by compounds, the small intestine-colon sensitivity index of compound X was calculated as:
(SI/Colon)X/(SI/Colon)[Gly2]GLP-2%
Compounds with a small intestine-colon sensitivity greater than or equal to 1.05 were considered relatively selective for the small intestine (Table 15).
Compounds with a small intestine-colon sensitivity smaller than or equal to 0.95 were considered relatively selective for the colon (Table 15).

[1] = 30 nmol/kg s.c. twice daily, ten days

Row | Substance | Preferential growth of small intestine versus colon (small intestine-colon sensitivity) [1] | colon mass relative to body weight, % [Gly2]GLP-2 | small intestine-colon sensitivity index, (SI/Colon)X/(SI/Colon)[Gly2]GLP-2 % | Small intestine mass relative to [Gly2]GLP-2 (30 nmol/kg s.c. twice daily, ten days, equimolar [Gly2]GLP-2)
1 | [Gly2, Glu3, Leu10, Lys11, Ala16,24,28]hGLP-2(1-33)-(Lys)6-NH2 (HGEGSFSDELKTILDALAARDFIAWLIATKITDKKKKKK-NH2) [Compound 1850] | preferentially stimulating epithelial growth in the small intestine | 89 % [Gly2]GLP-2 | 116 % [Gly2]GLP-2 | 
2 | [Gly2, Glu3, Leu10, Lys11, Ala16,24,28]hGLP-2(1-33)-NH2 (HGEGSFSDELKTILDALAARDFIAWLIATKITD-NH2) [Compound 1859] | preferentially stimulating epithelial growth in the small intestine | 73 % [Gly2]GLP-2 | 114 % [Gly2]GLP-2 | 
3 | [Gly2, Glu3, Thr5, Leu10, Ala11,16,24,28]hGLP-2-(Lys)6-NH2 (HGEGTFSDELATILDALAARDFIAWLIATKITDKKKKKK-NH2) [Compound 1809] | preferentially stimulating epithelial growth in the small intestine |  |  | significant increase in the weight of the small intestine
4 | [Gly2, Glu3, Thr5, Leu10, Lys11, Ala16,24,28]hGLP-2(1-33)-(Lys)6-NH2 (HGEGTFSDELKTILDALAARDFIAWLIATKITDKKKKKK-NH2) [Compound 1851] | preferentially stimulating epithelial growth in the small intestine | 96 % [Gly2]GLP-2 | 114 % [Gly2]GLP-2 | 
5 | [Gly2, Glu3, Thr5, Leu10, Ser11, Ala16,24,28]hGLP-2(1-33)-(Lys)6-NH2 (HGEGTFSDELSTILDALAARDFIAWLIATKITDKKKKKK-NH2) [Compound 1845] | preferentially stimulating epithelial growth in the small intestine | 98 % [Gly2]GLP-2 | 107 % [Gly2]GLP-2 | 
6 | [Gly2, Glu3, Thr5, Leu10, Ser11, Ala16,24,28]hGLP-2(1-33)-NH2 (HGEGTFSDELSTILDALAARDFIAWLIATKITD-NH2) [Compound 1854] | without preferential growth in small intestine or colon |  |  | 
7 | [Gly2, Glu3, Thr5, Ser8,11, Leu10, Ala16,24,28]hGLP-2(1-33)-(Lys)6-NH2 (HGEGTFSSELSTILDALAARDFIAWLIATKITDKKKKKK-NH2) [Compound 1844] | supplementary increase in the weight of the small intestine without significant effecting the weight of the colon; also recorded: preferentially stimulating epithelial growth in the small intestine | 89 % [Gly2]GLP-2 | 119 % [Gly2]GLP-2 | 
8 | [Gly2, Glu3, Thr5, Ser8,11, Leu10, Ala16,24,28]hGLP-2(1-33)-NH2 (HGEGTFSSELSTILDALAARDFIAWLIATKITD-NH2) [Compound 1853] | supplementary increase in the weight of the small intestine without significant effecting the weight of the colon; also recorded: preferentially stimulating epithelial growth in the small intestine | 96 % [Gly2]GLP-2 | 105 % [Gly2]GLP-2 | 
9 | [Gly2, Glu3, Thr5, Ser8, Leu10, Lys11, Ala16,24,28]hGLP-2(1-33)-NH2 [Compound 1852] | supplementary increase in the weight of the small intestine without significant effecting the weight of the colon; also recorded: preferentially stimulating epithelial growth in the small intestine | 97 % [Gly2]GLP-2 | 109 % [Gly2]GLP-2 | 
10 | [Gly2, Leu10, Ala24]hGLP-2-K6-NH2 (HGDGSFSDELNTILDNLAARDFIAWLIQTKITDKKKKKK-NH2) [Compound 1826] | preferentially stimulating epithelial growth in the small intestine |  |  | 
11 | [Gly2, Leu10, Lys11, Ala24]hGLP-2(1-30)-K6-NH2 [Compound 1821] | without preferential growth in small intestine or colon |  |  | 
12 | [Gly2, Leu10, Lys11, Ala24]hGLP-2(1-30)-NH2 (HGDGSFSDELKTILDNLAARDFIAWLIQTK-NH2) [Compound 1835] | preferentially stimulating epithelial growth in the colon | 105 % [Gly2]GLP-2 | 91 % [Gly2]GLP-2 | 
13 | [Gly2, Leu10, Ser8,11, Ala24]hGLP-2(1-30)-K6-NH2 [Compound 1829] | without preferential growth in small intestine or colon |  |  | 
14 | [Gly2, Leu10, Ser8,11, Ala24]hGLP-2(1-30)-NH2 (HGDGSFSSELSTILDNLAARDFIAWLIQTK-NH2) [Compound 1833] | without preferential growth in small intestine or colon |  |  | 
15 | [Gly2, Leu10, Ser11, Ala24]hGLP-2(1-30)-K6-NH2 [Compound 1819] | preferentially stimulating epithelial growth in the small intestine |  |  | 
16 | [Gly2, Leu10, Ser11, Ala24]hGLP-2(1-30)-NH2 (HGDGSFSDELSTILDNLAARDFIAWLIQTK-NH2) [Compound 1830] | preferentially stimulating epithelial growth in the colon | 106 % [Gly2]GLP-2 | 94 % [Gly2]GLP-2 | 
17 | [Gly2, Ser8, Leu10, Ala11,24]hGLP-2(1-30)-K6-NH2 [Compound 1818] | supplementary increase in the weight of the small intestine without significant effecting the weight of the colon; also recorded: preferentially stimulating epithelial growth in the small intestine |  |  | 
18 | [Gly2, Ser8, Leu10, Ala11,24]hGLP-2(1-30)-NH2 (HGDGSFSSELATILDNLAARDFIAWLIQTK-NH2) [Compound 1825] | without preferential growth in small intestine or colon |  |  | 
19 | [Gly2, Thr7, Leu10, Lys11, Ala24]hGLP-2(1-30)-K6-NH2 [Compound 1822] | without preferential growth in small intestine or colon |  |  | 
20 | [Gly2, Thr7, Leu10, Lys11, Ala24]hGLP-2(1-30)-NH2 (HGDGSFTDELKTILDNLAARDFIAWLIQTK-NH2) [Compound 1836] | preferentially stimulating epithelial growth in the colon | 105 % [Gly2]GLP-2 | 90 % [Gly2]GLP-2 | 
21 | [Gly2, Thr7, Leu10, Ser8,11, Ala24]hGLP-2(1-30)-K6-NH2 [Compound 1828] | without preferential growth in small intestine or colon |  |  | 
22 | [Gly2, Thr7, Leu10, Ser8,11, Ala24]hGLP-2(1-30)-NH2 (HGDGSFTSELSTILDNLAARDFIAWLIQTK-NH2) [Compound 1832] | without preferential growth in small intestine or colon |  |  | 
23 | [Gly2, Thr7, Leu10, Ser11, Ala24]hGLP-2(1-30)-K6-NH2 [Compound 1827] | preferentially stimulating epithelial growth in the small intestine |  |  | 
24 | [Gly2, Thr7, Leu10, Ser11, Ala24]hGLP-2(1-30)-NH2 (HGDGSFTDELSTILDNLAARDFIAWLIQTK-NH2) [Compound 1831] | preferentially stimulating epithelial growth in the colon | 102 % [Gly2]GLP-2 | 88 % [Gly2]GLP-2 | 
25 | [Gly2, Thr7, Ser8, Leu10, Lys11, Ala24]hGLP-2(1-30)-K6-NH2 [Compound 1823] | without preferential growth in small intestine or colon |  |  | 
26 | [Leu10, Ala11, Ala24]hGLP-2 (1-30)-NH2 [Compound 1841] | preferentially stimulating epithelial growth in the colon | 126 % [Gly2]GLP-2 | 90 % [Gly2]GLP-2 | 
27 | [Leu10, Ala11, Ala24]hGLP-2 (1-33)-K6-NH2 [Compound 1839] | preferentially stimulating epithelial growth in the colon | 133 % [Gly2]GLP-2 | 84 % [Gly2]GLP-2 | 
28 | [Leu10, Ala11, Ala24]hGLP-2 (1-33)-NH2 [Compound 1840] | preferentially stimulating epithelial growth in the colon | 131 % [Gly2]GLP-2 | 86 % [Gly2]GLP-2 | 
